Legend:
[1] = system: Rat cardiomyocytes (H9c2); assay: GD-induced myocardial cell damage model, CCK-8, SGLT2 inhibitors with L-menthol (Example 9); format: cell-based; settings: single drugs: SGLT2 inhibitor 50 μM or menthol 200 μM; GD 36-48 h; untreated group 54.7%
[2] = system: intracellular calcium concentration; assay: Intracellular calcium ion concentration with calcium probe Fluo4-AM (Example 5); format: cell-based; settings: cariporide 100 μM, empagliflozin 50 μM, menthol 200 μM, combination 50 μM + 200 μM
Description: Intracellular calcium overload is an important factor in the transition of myocardial cells from reversible to irreversible damage. Intracellular calcium overload can be seen in a variety of cardiac pathological states, such as cardiac remodeling, myocardial ischemia-reperfusion injury, viral myocarditis, dilated cardiomyopathy, arrhythmias, and congestive heart failure. […] Empagliflozin can act on the sodium-hydrogen exchanger 1 (NHE1) on the myocardial cell membrane. When myocardial ischemia occurs, myocardial cell energy metabolism is impaired, and myocardial cells switch from fatty acid metabolism to sugar-free glycolysis, producing a large amount of lactic acid, which reduces the intracellular pH. As a regulatory protein for cell pH homeostasis, NHE1 can transport H^+ out of the cell by exchanging extracellular sodium ions, resulting in an increase in the intracellular sodium ion concentration. […] When mitochondrial function is impaired, the release of ROS increases, and ROS can further stimulate L-type calcium channels, promoting Ca^2+ influx, creating a vicious cycle. Empagliflozin inhibits the activity of NHE1 and can indirectly reduce the intracellular calcium ion concentration. Menthol, as an L-type calcium channel blocker, can synergistically reduce the intracellular calcium ion concentration with empagliflozin, playing a synergistic role. In order to verify this synergistic mechanism, the intracellular calcium ion concentration was detected using the calcium ion probe Fluo4-AM.
The experiment was divided into 5 groups, including control group (no drug group), cariporide group (positive control group, 100 μM), EMPA-50 (empagliflozin, 50 μM), M-200 (menthol, 200 μM), and E50+M200 (combination of 50 μM empagliflozin and 200 μM menthol).
• (1) Take an appropriate amount of Fluo4-AM stock solution (2 mM, BeyoTime, S1060) and dilute it to a 10 μM working solution with HBSS; • (2) For the cells to be tested (covering the bottom of the dish), remove the culture medium and wash with HBSS three times; • (3) Add 25 μL of Fluo4-AM working solution to each well, and then add 25 μL of compound solution to each well; • (4) Incubate at 37° C. for 30 min for fluorescent probe loading; • (5) Wash three times with HBSS, and add 100 μL of HBSS containing 10 mM CaCl2) to each well. Detect quantitatively the fluorescence of Fluo4-AM using a multifunctional fluorescence microplate reader (excitation wavelength 488 nm, emission wavelength 520 nm) to determine the changes in intracellular calcium ions.
Since empagliflozin indirectly affects intracellular calcium concentration by inhibiting NHE1, the intracellular environment was made acidic by using ammonium chloride solution to simulate the environment during myocardial ischemia, and the effect of the administered composition on intracellular calcium ions was tested. The NHE1 inhibitor cariporide was used as a positive control. The above step (3) was changed to add 25 μL of Fluo4-AM working solution to each well, mix the test compound with 80 mM NH4Cl solution at a 1:1 ratio, and then add 25 μL mixed solution of the compound and NH4Cl to each well (the final concentration of NH4Cl was 20 mM), and the remaining steps were the same as above.

With canagliflozin the cell survival rate [1] was 60.2%.

In the case of `CC(C)c1ccc(C(=O)NC(=N)N)cc1S(C)(=O)=O` [cariporide], the “effect on intracellular calcium concentration (Fluo4-AM fluorescence)” value ([2]; NH4Cl present (20 mM, acidic intracellular conditions)) is reported as “significantly reduce intracellular calcium concentration” and the “effect on intracellular calcium concentration (Fluo4-AM fluorescence)” value ([2]; absence of NH4Cl) is reported as “almost no effect”.

`CCOc1ccc(Cc2cc([C@@H]3O[C@H](CO)[C@@H](O)[C@H](O)[C@H]3O)ccc2Cl)cc1` [dapagliflozin] gave a cell survival rate [1] of 58.9%.

`CCOc1ccc(Cc2cc([C@]34OC[C@](CO)(O3)[C@@H](O)[C@H](O)[C@H]4O)ccc2Cl)cc1` [ertugliflozin] showed a cell survival rate [1] of 58.6%.

— patent US20250360091A1, “COMBINATION OF SGLT2 INHIBITOR AND MENTHOL AND USE THEREOF IN TREATMENT OF HEART DISEASE” (EAST CHINA UNIVERSITY OF SCIENCE AND TECHNOLOGY, priority 2023, published 2025)
